Measurements reported in ChEMBL document CHEMBL1201862, “PubChem BioAssay data set” (2004).
Calls of active or inactive are those of the source.

Columns and labels:
[1] = Trypanosoma cruzi growth suppression in host cells – NIH3T3 host cells, beta-gal luminescence, confirmation (AID 2044); format: functional, cell-based;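 also: intracellular parasites grown in NIH/3T3 mouse fibroblasts as host cells; luminescent beta-galactosidase reporter signal from transgenic T. cruzi replicating inside host cells; inhibitors lower the luminescence signal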
HEK293 [2] = test: HEK293T cell viability loss, resazurin readout – resazurin fluorescence, cytotoxicity control for NF-kB activator project, SAR follow-up (AID 493251); format: functional, cell-based; settings: Homo sapiens
HEK293 [3] = test: SAR Analysis of small molecule inhibitors of T-cell specific antigen receptor-induced NF-kB activation in a HEK-293T cell line using a luminescence assay - Set 2. [Related pubchem assays (depositor defined):AID435003, AID435012, AID489026]; format: functional, cell-based; settings: Homo sapiens
[4] = luciferase reporter signal suppression in cells – H4 neuroglioma cells, luminescence, dose response (AID 1990); format: functional, cell-based
[5] = Luminescence Cell-Based Dose Response HTS to Identify Inhibitors of 5'UTR Stem-Loop Driven Prion Protein mRNA Translation in H4 Neuroglioblastoma Cells. [Related pubchem assays: 1827 (Project Summary), 1813 (Primary HTS)]; format: functional
Jurkat = test: SAR Analysis of small molecule inhibitors of T-cell specific antigen receptor-induced NF-kB activation in a Jurkat cell line using a luminescence assay - Set 2. [Related pubchem assays (depositor defined):AID435003, AID435012, AID465]; format: functional, cell-based; settings: Homo sapiens
[6] = NIH3T3 cell viability loss – ATP luminescence, mouse fibroblasts, counter-screen, dose response (AID 2010); format: functional, cell-based;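 also: cells exposed to compound for about 90 hours before reading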
[7] = biological target: T1, Microphthalmia-associated transcription factor (Homo sapiens, UniProt O75030); test: reducers of TRPM1 reporter luminescence, concentration series – cell-based, SK-MEL-5, cherry-picked, set 3, MITF inhibitor project, dose response (AID 493073); format: functional;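 also: SK-MEL-5 melanoma cells with luciferase driven by the MITF target TRPM1 promoter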
T1 sequence (O75030 whole entry): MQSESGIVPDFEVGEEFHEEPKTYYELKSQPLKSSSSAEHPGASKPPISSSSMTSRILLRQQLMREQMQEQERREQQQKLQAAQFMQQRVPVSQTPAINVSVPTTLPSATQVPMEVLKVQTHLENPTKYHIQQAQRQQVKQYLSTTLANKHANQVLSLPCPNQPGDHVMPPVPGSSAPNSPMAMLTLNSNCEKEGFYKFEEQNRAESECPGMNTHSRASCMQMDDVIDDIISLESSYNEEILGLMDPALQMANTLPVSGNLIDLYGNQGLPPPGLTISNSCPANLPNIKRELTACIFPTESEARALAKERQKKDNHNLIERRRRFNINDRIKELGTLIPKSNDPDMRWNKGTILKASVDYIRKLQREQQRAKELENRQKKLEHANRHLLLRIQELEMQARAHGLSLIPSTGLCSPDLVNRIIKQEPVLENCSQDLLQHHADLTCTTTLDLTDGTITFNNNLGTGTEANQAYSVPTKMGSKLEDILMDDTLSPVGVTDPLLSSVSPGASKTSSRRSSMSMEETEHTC

[8] = biological target: Beta-2 adrenergic receptor (Homo sapiens, UniProt P07550); test: ADRB2 activation measured by internalization – cell-based, FAP fluorogen, flow cytometry, cherry pick 1, dose response (AID 588763); format: functional
[9] = alpha-synuclein stem-loop luciferase translation blockers – H4 neuroglioma cells, luminescence, confirmation (AID 1988); format: functional, cell-based
[10] = biological target: T2, Alkaline phosphatase, tissue-nonspecific isozyme (Homo sapiens, UniProt P05186); test: potency against alkaline phosphatase TNAP – biochemical, luminescent, dose response, SAR follow-up (AID 1056)
T2 sequence (P05186 whole entry): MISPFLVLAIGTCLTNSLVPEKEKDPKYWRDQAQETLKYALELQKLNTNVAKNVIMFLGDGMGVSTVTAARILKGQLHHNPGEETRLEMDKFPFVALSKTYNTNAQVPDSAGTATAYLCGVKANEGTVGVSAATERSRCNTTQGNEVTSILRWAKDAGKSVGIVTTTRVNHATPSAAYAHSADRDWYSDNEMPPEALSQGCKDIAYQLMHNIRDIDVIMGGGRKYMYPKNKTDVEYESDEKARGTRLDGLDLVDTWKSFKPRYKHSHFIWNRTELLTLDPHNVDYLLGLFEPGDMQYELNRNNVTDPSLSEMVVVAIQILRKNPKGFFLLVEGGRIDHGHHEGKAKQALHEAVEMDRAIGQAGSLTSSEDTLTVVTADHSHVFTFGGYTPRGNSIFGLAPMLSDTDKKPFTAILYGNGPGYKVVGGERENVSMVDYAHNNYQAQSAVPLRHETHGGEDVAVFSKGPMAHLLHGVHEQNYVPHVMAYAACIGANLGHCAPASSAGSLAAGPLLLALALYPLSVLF

[11] = biological target: Dual specificity tyrosine-phosphorylation-regulated kinase 1A (Rattus norvegicus, UniProt Q63470); format: biochemical, Homo sapiens
[12] = biological target: Glyceraldehyde-3-phosphate dehydrogenase (Homo sapiens, UniProt P04406)
[13] = biological target: Dual specificity protein kinase CLK1 (Homo sapiens, UniProt P49759); test: inhibition of human CLK1 activity – biochemical, cherry-picked samples, selectivity assay for Dyrk1A inhibitor project, dose response (AID 588811)
[14] = blockers of bursicon-stimulated LGR2 cAMP reporter – cell-based, HEK293, CRE-luciferase reporter, cherry pick, set 2, dose response (AID 743343); format: functional;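 also: transfected cells were stimulated with diluted bursicon conditioned medium after compound addition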
[15] = toxicity toward HepG2 liver cells – cell-based, plate reader, cherry-pick, antagonist series, cytotoxicity control, dose response (AID 743416); format: functional
[16] = biological target: 5-hydroxytryptamine receptor 5A (Homo sapiens, UniProt P47898); test: Counterscreen for agonists of OPRM1-OPRD1 heterodimerization: luminescence-based cell-based high throughput dose response assay to identify agonists of 5-hydroxytryptamine (serotonin) 5A receptor (HTR5A). [Related pubchem assays (depositor defined):AID504326, AID504355, AID504692, AID504904, AID504905]; format: functional
[17] = viability loss in HEK293 cells – cell-based, plate reader, cherry-picked samples, cytotoxicity control, dose response (AID 743446); format: functional
Mu-type opioid receptor = Mu-type opioid receptor (Homo sapiens, UniProt P35372); test: Counterscreen for agonists of heterodimerization of the mu 1 (OPRM1) and delta 1 (OPRD1) opioid receptors: Luminescence-based cell-based high throughput dose response assay to identify agonists of OPRM1 homodimerization.; format: functional;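 also: U2OS cells expressing OPRM1 and beta-arrestin as split beta-galactosidase partners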
[18] = blockade of melanocortin 4 receptor signaling – cell-based, plate reader, cherry pick, counter-screen for LGR2 antagonist project, dose response (AID 743444); format: functional;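 also: transfected HEK 293 cells stimulated with alpha-MSH peptide; potency of inhibitors of the alpha-MSH evoked signal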
[19] = A549 cell cytotoxicity, dose response, cytotoxicity control, plate reader, cherry-pick, antagonist series (AID 743412); format: functional, cell-based
[20] = biological target: Delta-type opioid receptor (Homo sapiens, UniProt P41143); test: Counterscreen for agonists of heterodimerization of the mu 1 (OPRM1) and delta 1 (OPRD1) opioid receptors: Luminescence-based cell-based high throughput dose response assay to identify agonists of OPRD1 homodimerization. [Related pubchem assays (depositor defined):AID504326, AID504355, AID504692, AID504904, AID504905]; format: functional
HEK293 [21] = test: EBV LMP1 TES2 canonical NF-kB signalling blockers – cell-based, HEK293, luciferase, cherry-pick, dose response (AID 588343); format: functional; settings: Homo sapiens
[22] = biological target: T3, Heat shock factor protein 1 (Mus musculus, UniProt P38532); test: decrease of HSF1-responsive luciferase luminescence – cell-based, NIH3T3, dose retest, confirmation (AID 2382); format: functional;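 also: NIH3T3 fibroblasts with HSF1-driven luciferase reporter stressed by proteasome inhibitor MG132; luminescence from HSF1-driven luciferase expression after 8 hours of MG132 stress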
T3 sequence (P38532 whole entry): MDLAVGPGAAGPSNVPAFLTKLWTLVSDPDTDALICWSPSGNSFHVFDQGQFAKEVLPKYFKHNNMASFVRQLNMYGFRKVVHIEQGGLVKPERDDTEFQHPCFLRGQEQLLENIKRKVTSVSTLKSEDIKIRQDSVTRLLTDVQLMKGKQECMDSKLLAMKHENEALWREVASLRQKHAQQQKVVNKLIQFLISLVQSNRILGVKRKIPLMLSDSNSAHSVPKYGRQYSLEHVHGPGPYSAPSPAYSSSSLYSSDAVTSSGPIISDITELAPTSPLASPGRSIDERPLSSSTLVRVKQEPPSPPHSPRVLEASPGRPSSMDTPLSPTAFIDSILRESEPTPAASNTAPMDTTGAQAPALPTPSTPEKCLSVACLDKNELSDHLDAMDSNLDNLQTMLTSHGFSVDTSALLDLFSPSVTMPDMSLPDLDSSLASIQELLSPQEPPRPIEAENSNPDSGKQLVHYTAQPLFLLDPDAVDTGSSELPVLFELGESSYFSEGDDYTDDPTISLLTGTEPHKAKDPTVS

[23] = biological target: Heat shock protein HSP 90-alpha (Homo sapiens, UniProt P07900); format: functional, organism-based
Streptokinase A = biological target: T4, Streptokinase A (Streptococcus pyogenes serotype M1, UniProt P10520); test: viability-normalized secreted streptokinase activity reduction – plasminogen activation absorbance, OD405, dose response (AID 1914); format: functional, Streptococcus pyogenes M1 GAS;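 also: secreted streptokinase activity via plasminogen activation per viability signal from cell pellet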
T4 sequence (P10520 whole entry): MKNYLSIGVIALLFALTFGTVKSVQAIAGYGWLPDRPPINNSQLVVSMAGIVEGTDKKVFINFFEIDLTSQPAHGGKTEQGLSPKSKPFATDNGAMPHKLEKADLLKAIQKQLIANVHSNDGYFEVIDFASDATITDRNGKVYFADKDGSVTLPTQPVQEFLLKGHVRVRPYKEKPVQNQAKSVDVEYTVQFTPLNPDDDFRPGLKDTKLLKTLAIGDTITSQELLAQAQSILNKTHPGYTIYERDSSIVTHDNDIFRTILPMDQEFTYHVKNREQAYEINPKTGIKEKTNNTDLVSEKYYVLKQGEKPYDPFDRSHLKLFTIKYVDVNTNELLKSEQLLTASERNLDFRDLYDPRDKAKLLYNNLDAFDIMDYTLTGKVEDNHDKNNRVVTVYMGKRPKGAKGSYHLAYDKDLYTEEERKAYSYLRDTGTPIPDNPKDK

[24] = test system: Streptococcus sp. 'group A'; test: Streptococcus pyogenes SK(-)GAS viability under kanamycin – luminescence, BacTiterGlo, confirmation, counter-screen for streptokinase expression inhibitor project, dose response (AID 1900); format: functional, organism-based
HEK293 [25] = test: cells; settings: Homo sapiens
Streptococcus = test: GAS UMAA2166 growth inhibition – luminescence, BacTiterGlo, counter-screen for streptokinase expression inhibitor project, dose response (AID 1915); format: functional, organism-based;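 also: potency for reduction of bacterial viability or growth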
Genome polyprotein = Genome polyprotein (dengue virus type 2, UniProt P29990); test: flavivirus cap methylation enzyme inhibition – biochemical, confirmation dose response, primary screen (AID 588689); format: functional
HEK293 [26] = test: cells; settings: Homo sapiens; remark: listed apart in the source
[27] = biological target: T5, Endoribonuclease toxin MazF (Escherichia coli K-12, UniProt P0AE70); test: activation of MazEF endoribonuclease cleavage – biochemical, fluorescence, single-stranded RNA substrate, uHTS hits, dose response (AID 588481); format: functional
T5 sequence (P0AE70 whole entry): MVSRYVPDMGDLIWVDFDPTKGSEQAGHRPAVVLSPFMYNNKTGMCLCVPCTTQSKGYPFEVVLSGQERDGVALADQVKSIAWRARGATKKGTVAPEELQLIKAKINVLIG

[28] = biological target: T5, Endoribonuclease toxin MazF; test: substrate-only fluorescence increase artefacts – biochemical, single-stranded RNase substrate, counter-screen for MazEF activator project, dose response (AID 588502); format: functional
Escherichia coli = test: microbe, parasite or virus in culture
Trypsin = Trypsin (Sus scrofa, UniProt P00761); test: trypsin protease activity blockade – biochemical, quenched peptide fluorescence, cherry-pick, selectivity assay for Rce1 protease inhibitor project, dose response (AID 488789)
CAAX prenyl protease 2 = CAAX prenyl protease 2 (Homo sapiens, UniProt Q9Y256); test: inhibition of Ras-converting CAAX protease Rce1 – biochemical, yeast membranes, quenched-peptide fluorescence, cherry-pick, dose response (AID 588849)
Sequence of CAAX prenyl protease 2 (Q9Y256 whole entry): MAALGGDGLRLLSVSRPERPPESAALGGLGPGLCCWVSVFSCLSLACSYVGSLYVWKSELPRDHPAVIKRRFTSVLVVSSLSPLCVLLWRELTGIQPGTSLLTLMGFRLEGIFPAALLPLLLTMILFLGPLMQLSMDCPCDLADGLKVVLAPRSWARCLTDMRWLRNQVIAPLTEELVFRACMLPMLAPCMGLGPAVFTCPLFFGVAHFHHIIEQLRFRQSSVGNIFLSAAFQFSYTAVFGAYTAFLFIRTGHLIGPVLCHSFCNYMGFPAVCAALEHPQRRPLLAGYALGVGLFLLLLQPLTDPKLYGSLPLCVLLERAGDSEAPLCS

Sequence of Beta-2 adrenergic receptor (P07550 whole entry): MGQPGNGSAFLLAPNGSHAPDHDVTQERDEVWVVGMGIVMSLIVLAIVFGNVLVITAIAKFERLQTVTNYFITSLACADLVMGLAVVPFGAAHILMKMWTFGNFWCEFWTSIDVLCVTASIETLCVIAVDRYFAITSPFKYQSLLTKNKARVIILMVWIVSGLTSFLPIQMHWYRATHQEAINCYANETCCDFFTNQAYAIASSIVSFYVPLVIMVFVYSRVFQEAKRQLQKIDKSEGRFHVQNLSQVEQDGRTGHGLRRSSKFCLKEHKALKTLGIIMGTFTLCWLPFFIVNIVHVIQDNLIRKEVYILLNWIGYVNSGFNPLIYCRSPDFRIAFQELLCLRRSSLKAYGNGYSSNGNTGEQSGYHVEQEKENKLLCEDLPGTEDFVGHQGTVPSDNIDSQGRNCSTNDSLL
Sequence of Dual specificity protein kinase CLK1 (P49759 whole entry): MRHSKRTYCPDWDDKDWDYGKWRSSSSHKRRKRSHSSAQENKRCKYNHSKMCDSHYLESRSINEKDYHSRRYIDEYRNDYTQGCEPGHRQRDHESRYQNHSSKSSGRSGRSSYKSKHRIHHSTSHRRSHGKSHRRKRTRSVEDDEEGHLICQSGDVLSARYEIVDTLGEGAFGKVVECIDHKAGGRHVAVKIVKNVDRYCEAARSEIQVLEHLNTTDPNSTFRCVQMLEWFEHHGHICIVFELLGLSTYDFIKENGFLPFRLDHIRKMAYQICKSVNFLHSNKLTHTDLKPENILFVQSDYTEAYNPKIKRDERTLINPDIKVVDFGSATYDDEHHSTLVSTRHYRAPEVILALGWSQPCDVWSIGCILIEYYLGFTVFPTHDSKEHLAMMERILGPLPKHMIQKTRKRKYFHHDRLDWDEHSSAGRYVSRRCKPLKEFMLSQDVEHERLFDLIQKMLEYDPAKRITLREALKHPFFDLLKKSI
Sequence of Mu-type opioid receptor (P35372 whole entry): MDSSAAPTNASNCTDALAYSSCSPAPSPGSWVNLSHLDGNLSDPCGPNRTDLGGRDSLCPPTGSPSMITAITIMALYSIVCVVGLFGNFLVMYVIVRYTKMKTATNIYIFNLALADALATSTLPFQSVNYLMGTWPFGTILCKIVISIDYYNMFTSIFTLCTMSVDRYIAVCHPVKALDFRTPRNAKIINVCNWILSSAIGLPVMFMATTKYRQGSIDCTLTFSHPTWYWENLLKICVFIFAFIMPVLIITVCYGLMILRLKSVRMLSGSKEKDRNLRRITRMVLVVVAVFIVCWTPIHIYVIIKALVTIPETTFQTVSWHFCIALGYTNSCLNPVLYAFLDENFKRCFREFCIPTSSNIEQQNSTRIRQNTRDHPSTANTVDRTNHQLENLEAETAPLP
Sequence of Delta-type opioid receptor (P41143 whole entry): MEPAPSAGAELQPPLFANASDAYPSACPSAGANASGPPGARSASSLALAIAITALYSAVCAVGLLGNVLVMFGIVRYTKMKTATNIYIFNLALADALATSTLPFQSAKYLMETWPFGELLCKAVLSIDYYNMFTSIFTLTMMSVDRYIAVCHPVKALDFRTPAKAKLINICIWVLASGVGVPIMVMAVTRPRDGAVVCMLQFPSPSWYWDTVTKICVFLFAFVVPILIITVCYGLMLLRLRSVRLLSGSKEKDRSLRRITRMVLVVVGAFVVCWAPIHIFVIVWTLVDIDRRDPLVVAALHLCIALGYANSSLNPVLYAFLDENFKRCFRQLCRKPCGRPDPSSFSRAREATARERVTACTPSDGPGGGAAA
Sequence of Genome polyprotein (P29990 2492-3391 limits assumed): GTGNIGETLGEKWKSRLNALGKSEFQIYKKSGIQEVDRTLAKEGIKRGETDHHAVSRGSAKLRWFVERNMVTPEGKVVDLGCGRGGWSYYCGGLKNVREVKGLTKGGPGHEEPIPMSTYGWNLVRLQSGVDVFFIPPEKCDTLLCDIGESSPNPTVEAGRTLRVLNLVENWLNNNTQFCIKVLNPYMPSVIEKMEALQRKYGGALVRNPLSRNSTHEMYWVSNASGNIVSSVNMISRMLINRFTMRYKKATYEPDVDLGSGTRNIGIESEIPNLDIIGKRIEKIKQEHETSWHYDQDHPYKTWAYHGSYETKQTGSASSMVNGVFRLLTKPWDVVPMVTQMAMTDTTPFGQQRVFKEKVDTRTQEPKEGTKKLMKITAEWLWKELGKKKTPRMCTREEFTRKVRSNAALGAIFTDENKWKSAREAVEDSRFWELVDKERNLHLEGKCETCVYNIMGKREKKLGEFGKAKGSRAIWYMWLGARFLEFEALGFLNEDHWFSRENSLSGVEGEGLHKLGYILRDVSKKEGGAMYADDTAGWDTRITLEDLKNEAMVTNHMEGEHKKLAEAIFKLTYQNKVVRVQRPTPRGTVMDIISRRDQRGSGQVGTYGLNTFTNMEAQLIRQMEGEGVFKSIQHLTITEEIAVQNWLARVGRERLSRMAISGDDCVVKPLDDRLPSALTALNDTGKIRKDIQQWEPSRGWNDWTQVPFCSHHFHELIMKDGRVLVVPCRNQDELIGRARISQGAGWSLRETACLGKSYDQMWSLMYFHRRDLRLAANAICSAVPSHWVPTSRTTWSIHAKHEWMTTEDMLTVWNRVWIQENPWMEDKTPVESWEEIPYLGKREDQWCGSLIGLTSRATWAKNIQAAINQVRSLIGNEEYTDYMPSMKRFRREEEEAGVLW
Sequence of Trypsin (P00761 whole entry): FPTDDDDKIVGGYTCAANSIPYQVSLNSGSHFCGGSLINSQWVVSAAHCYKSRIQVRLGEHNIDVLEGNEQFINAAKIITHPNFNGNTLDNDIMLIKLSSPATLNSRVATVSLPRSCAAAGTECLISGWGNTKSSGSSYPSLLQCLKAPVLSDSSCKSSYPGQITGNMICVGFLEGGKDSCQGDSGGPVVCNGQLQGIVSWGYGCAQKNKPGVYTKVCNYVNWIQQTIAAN
Sequence of Glyceraldehyde-3-phosphate dehydrogenase (P04406 whole entry): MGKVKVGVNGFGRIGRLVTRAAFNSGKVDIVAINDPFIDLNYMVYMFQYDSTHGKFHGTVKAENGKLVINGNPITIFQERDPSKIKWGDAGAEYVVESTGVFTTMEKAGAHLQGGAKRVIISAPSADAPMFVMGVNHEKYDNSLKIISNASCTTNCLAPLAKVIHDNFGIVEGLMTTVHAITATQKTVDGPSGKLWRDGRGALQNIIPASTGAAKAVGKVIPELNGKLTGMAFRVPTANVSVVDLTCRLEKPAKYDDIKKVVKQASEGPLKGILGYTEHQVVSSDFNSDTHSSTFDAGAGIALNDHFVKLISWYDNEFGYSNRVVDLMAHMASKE
Sequence of 5-hydroxytryptamine receptor 5A (P47898 whole entry): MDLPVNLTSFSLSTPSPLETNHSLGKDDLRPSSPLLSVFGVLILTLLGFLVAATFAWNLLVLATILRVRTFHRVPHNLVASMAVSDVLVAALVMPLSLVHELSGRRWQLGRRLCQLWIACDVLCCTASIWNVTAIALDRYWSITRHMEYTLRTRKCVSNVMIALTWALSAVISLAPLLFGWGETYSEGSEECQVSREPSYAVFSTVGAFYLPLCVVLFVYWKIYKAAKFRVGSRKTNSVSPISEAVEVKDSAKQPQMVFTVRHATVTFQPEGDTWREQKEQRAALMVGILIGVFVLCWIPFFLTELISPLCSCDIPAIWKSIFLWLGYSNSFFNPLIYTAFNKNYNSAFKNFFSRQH

CCN1CCN(c2ccc(NC(=O)c3ccc([N+](=O)[O-])o3)cc2Cl)CC1
EC50 [1]: > 30 µM (not active)
IC50 (HEK293 [2]): 49.2 µM (inactive)
IC50 (HEK293 [3]): 16.5 µM (active)
EC50 [4]: > 120 µM (not active)
EC50 [5]: > 120 µM (not active)
IC50 (Jurkat): 15.8 µM (active)
EC50 [6]: 4.34 µM (active)
AC50 [7]: 9.54 µM (active)
EC50 [8]: 6.22 µM (active)
EC50 [9]: 8.46 µM (active)

COc1ccc2c(c1)CCc1c-2n[nH]c1C(=O)O
IC50 [10]: 3.71 µM (active)
AC50 [11]: 7.28 µM (active)
IC50 [12]: > 10 µM (inconclusive)
AC50 [13]: 16.9 µM (active)

Nc1cc(N)nc(SCc2cc([N+](=O)[O-])cc3c2OCOC3)n1
EC50 [8]: 1.18 µM (active)

CC(C)CC(=O)NC(c1ccc(C(C)C)cc1)c1ccc2cccnc2c1O (stereo not drawn)
IC50 (HEK293 [2]): 18 µM (active)
IC50 (HEK293 [3]): 7.36 µM (active)
IC50 (Jurkat): 2.49 µM (active)

COc1cccc(NC(=O)Nc2ccc3c(c2)N(C)C(=O)CS3)c1
AC50 [11]: 5.3 µM (active)
AC50 [13]: 9.67 µM (active)

CC(C)n1ncc2c(C(=O)Nc3cccc(C#N)c3)cc(C3CC3)nc21
AC50 [14]: 1.46 µM (active)
AC50 [15]: 21.8 µM (active)
EC50 [16]: > 92.5 µM (inactive)
AC50 [17]: 24.3 µM (active)
EC50 (Mu-type opioid receptor): 18 µM (inactive)
AC50 [18]: 789 nM (active)
AC50 [19]: 39.1 µM (active)
EC50 [20]: > 92.5 µM (inactive)

COc1ccc2cc(-c3cc(C(=O)OCC(=O)Nc4c(C)n(C)n(-c5ccccc5)c4=O)c4ccccc4n3)ccc2c1
AC50 (HEK293 [21]): 1.07 µM (active)

Cc1ccc(-n2cc(C(=O)c3ccccc3O)cn2)cc1
EC50 [22]: < 160 nM (active)
AC50 (HEK293 [21]): 0.725 µM (active)

COC(=O)[C@@H]1[C@@H](C#N)C2(c3ccccc3-c3ccccc32)N(c2ccc(Cl)cc2)N1C#N
AC50 [23]: 1.7 µM (active)
EC50 (Streptokinase A): 63.1 µM (active)
EC50 [24]: 5.91 µM (active)
EC50 (HEK293 [25]): > 59.6 µM (inactive)
EC50 (Streptococcus): 19 µM (active)
IC50 (Genome polyprotein): 92.4 µM (active)
EC50 (HEK293 [26]): > 59.6 µM (inactive)

CN(C)c1ccc(/C=N/N(CCC#N)C2=NS(=O)(=O)c3ccccc32)cc1
EC50 [27]: > 99 µM (inactive)
EC50 [28]: 42.5 µM (inactive)

COc1ccccc1NS(=O)(=O)c1ccc2nc(S)oc2c1
AC50 (Escherichia coli): > 380 µM (inactive)

Cc1cc(C)c2nc(-c3ccco3)cc(C(=O)O)c2c1
AC50 (Trypsin): 10.9 µM (active)
AC50 (CAAX prenyl protease 2): 15.3 µM (active)
